Source: US10934310B2, “Inhibitors of Bruton's tyrosine kinase and method of their use” (JANSSEN PHARMACEUTICA NV, priority 2015, dated 2021)

The compounds below were run against unphosphorylated-BTK kinase domain (UP-BTK), GST-tagged human BTK (389-659aa) (Homo sapiens (Human), UniProt Q06187) (assay: BTK Kinase Lanthascreen Binding Assay). Settings: compound, 50 nM Tracer 236, 2 nM anti-GST antibody, 60 minutes; pIC50 = negative log of the IC50 in molar.
Procedure: BTK Kinase Lanthascreen Binding Assay:
A BTK kinase lanthascreen binding assay monitors compound binding to unphosphorylated-BTK kinase domain (UP-BTK), by competing with a fluorescent labeled tracer. […] Data were analyzed using Xlfit™ version 5.3 from ID Business Solutions (Guildford), Microsoft Excel add-in. pIC50 refers to the negative log of the IC50 in molar.

Sequence of unphosphorylated-BTK kinase domain (UP-BTK), GST-tagged human BTK (389-659aa) (Q06187 389-659): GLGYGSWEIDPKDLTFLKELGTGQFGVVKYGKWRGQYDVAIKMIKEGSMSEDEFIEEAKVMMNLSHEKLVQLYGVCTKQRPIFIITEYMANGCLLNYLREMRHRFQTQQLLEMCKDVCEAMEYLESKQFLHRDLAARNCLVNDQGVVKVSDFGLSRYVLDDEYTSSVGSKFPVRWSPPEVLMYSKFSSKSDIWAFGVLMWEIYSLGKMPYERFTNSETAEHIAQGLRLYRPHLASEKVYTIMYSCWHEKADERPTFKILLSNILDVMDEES

| Compound | BTK_I_binding pIC50 |
| --- | --- |
| N[C@H]1CCCC[C@H]1NC(=O)c1sc2nccc3c2c1NC(=O)N3c1ccnc(-c2ccccc2)c1 [Example 260, N-((1R,2S)-2-Aminocyclohexyl)-4-oxo-5-(2-phenylpyridin-4-yl)-4,5-dihydro-3H-1-thia-3,5,8-triazaacenaphthylene-2-carboxamide] | 6.45 |
| N[C@H]1CCC[C@H]1NC(=O)c1sc2nccc3c2c1NC(=O)N3c1ccnc(-c2ccccc2)c1 [Example 263, N-((1R,2S)-2-Aminocyclopentyl)-4-oxo-5-(2-phenylpyridin-4-yl)-4,5-dihydro-3H-1-thia-3,5,8-triazaacenaphthylene-2-carboxamide] | 6.38 |

More lines, now with the values ahead:

| BTK_I_binding pIC50 | Compound |
| --- | --- |
| 6.24 | N[C@H]1CCC[C@H]1NC(=O)c1sc2nccc3c2c1NC(=O)N3c1ccc(Oc2ccccc2)nc1 [Example 265, N-((1R,2S)-2-Aminocyclopentyl)-4-oxo-5-(6-phenoxypyridin-3-yl)-4,5-dihydro-3H-1-thia-3,5,8-triazaacenaphthylene-2-carboxamide] |
| 6.21 | N[C@H]1CCC[C@H]1NC(=O)c1sc2nccc3c2c1NC(=O)N3c1cc(-c2ccccc2)ccn1 [Example 267, N-((1R,2S)-2-Aminocyclopentyl)-4-oxo-5-(4-phenylpyridin-2-yl)-4,5-dihydro-3H-1-thia-3,5,8-triazaacenaphthylene-2-carboxamide] |
| 6.00 | N[C@@H]1CCC[C@H]1NC(=O)c1sc2nccc3c2c1NC(=O)N3c1ccc(Oc2ccccc2)nc1 [Example 269, N-((1R,2R)-2-Aminocyclopentyl)-4-oxo-5-(6-phenoxypyridin-3-yl)-4,5-dihydro-3H-1-thia-3,5,8-triazaacenaphthylene-2-carboxamide] |

Same assay, conditions: read-out: BTK_I_binding pIC50 (converted)

| Compound | IC50 [nM] |
| --- | --- |
| CC(=O)N[C@@H]1CCC[C@@H]1NC(=O)c1sc2nccc3c2c1NC(=O)N3c1ccnc(-c2ccccc2)c1 [Example 258, N-((1S,2R)-2-Acetamidocyclopentyl)-4-oxo-5-(2-phenylpyridin-4-yl)-4,5-dihydro-3H-1-thia-3,5,8-triazaacenaphthylene-2-carboxamide] | > 1000 |
| O=C(N[C@@H]1CCC[C@H]1O)c1sc2nccc3c2c1NC(=O)N3c1ccnc(-c2ccccc2)c1 [Example 268, N-((1R,2R)-2-Hydroxycyclopentyl)-4-oxo-5-(2-phenylpyridin-4-yl)-4,5-dihydro-3H-1-thia-3,5,8-triazaacenaphthylene-2-carboxamide] | 631 |
| N[C@@H]1CCCC[C@H]1NC(=O)c1sc2nccc3c2c1NC(=O)N3c1ccc(Oc2ccccc2)nc1 [Example 277, N-((1R,2R)-2-Aminocyclohexyl)-4-oxo-5-(6-phenoxypyridin-3-yl)-4,5-dihydro-3H-1-thia-3,5,8-triazaacenaphthylene-2-carboxamide] | > 1000 |

The next lines start with the values.

| IC50 [nM] | Compound |
| --- | --- |
| > 1000 | CC(C)c1cc(N2C(=O)Nc3c(C(=O)N[C@@H]4CCC[C@@H]4N)sc4nccc2c34)ccn1 [Example 270, N-((1R,2S)-2-Aminocyclopentyl)-5-(2-isopropylpyridin-4-yl)-4-oxo-4,5-dihydro-3H-1-thia-3,5,8-triazaacenaphthylene-2-carboxamide] |
| > 1000 | CC(C)Oc1ccc(N2C(=O)Nc3c(C(=O)N[C@@H]4CCC[C@@H]4N)sc4nccc2c34)cc1 [Example 271, N-((1R,2S)-2-Aminocyclopentyl)-5-(4-isopropoxyphenyl)-4-oxo-4,5-dihydro-3H-1-thia-3,5,8-triazaacenaphthylene-2-carboxamide] |
| > 1000 | N[C@H]1CCC[C@H]1NC(=O)c1sc2nccc3c2c1NC(=O)N3c1cnnc(-c2ccccc2)c1 [Example 278, N-((1R,2S)-2-Aminocyclopentyl)-4-oxo-5-(6-phenylpyridazin-4-yl)-4,5-dihydro-3H-1-thia-3,5,8-triazaacenaphthylene-2-carboxamide] |
| > 1000 | C=CC(=O)N[C@H]1CCC[C@H](NC(=O)c2sc3nccc4c3c2NC(=O)N4c2ccnc(-c3ccccc3)c2)C1 [Example 279, N-((1S,3S)-3-Acrylamidocyclohexyl)-4-oxo-5-(2-phenylpyridin-4-yl)-4,5-dihydro-3H-1-thia-3,5,8-triazaacenaphthylene-2-carboxamide] |
